Measured values from PMC5838106, “Cathelicidin promotes inflammation by enabling binding of self-RNA to cell surface scavenger receptors” (Scientific Reports, 2018).
Where no end group is shown, it is not given here.

Legend:
SR-B1 = biological target: T1, SR-B1 (Homo sapiens, UniProt Q8WTV0); assay: Proximity ligation assay for SR-B1 and U1 RNA; assay type: cell-based; details: NHEKs, peptide 2.5 μM 10 minutes, biotinylated U1 RNA 2.5 μg/mL, 4 °C, 1 hour
T1 construct: endogenous in cells; host or cells: NHEK (primary neonatal human epidermal keratinocytes)
T1 sequence (Q8WTV0 1-509 isoform Q8WTV0-2): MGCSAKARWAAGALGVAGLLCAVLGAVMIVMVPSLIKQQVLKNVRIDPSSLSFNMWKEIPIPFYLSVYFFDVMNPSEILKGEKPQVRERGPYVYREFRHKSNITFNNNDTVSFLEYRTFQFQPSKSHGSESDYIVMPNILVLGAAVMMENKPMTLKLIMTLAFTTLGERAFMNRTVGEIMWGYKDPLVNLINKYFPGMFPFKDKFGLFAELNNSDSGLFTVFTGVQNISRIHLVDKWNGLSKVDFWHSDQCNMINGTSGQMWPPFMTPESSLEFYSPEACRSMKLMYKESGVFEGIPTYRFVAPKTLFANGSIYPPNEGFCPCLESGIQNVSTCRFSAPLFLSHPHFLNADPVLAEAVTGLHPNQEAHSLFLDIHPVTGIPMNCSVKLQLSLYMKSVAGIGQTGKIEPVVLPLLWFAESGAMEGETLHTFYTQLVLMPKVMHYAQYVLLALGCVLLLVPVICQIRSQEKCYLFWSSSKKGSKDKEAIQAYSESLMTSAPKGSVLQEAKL
Protocol: Figure 3 Cathelicidin enables dsRNA to associate with scavenger receptors. (a) Proximity ligation assay for SR-B1 and U1 RNA. NHEKs were cultured with various cathelicidin peptides (2.5 μM) for 10 minutes, then with biotinylated U1 RNA (2.5 μg/mL) at 4 °C for 1 hour before physical proximity of SR-B1 and U1 RNA was determined using a fluorescence-based PLA that produces a red fluorescent signal. Nuclei (blue) are counterstained with DAPI. Scale bar represents 10 μm. (b) Signal count of (a) in 5 visual fields. (c) Proximity ligation assay as in (a) but reaction is detecting proximity of LL37 and SR-A6. Scale bar represents 100 μm. (d) Signal count of proximity ligation assay performed as in (a), but between U1 RNA and the indicated scavenger receptors, each count is PLA complexes observed in 5 visual fields. (e) Skin sections from healthy subject (control), or lesional skin from a psoriasis patient (Psoriasis) were fixed and PLA performed for LL37 and SR-B1. […]
NHEKs seeded into 8 chamber slides (Thermo Fisher Scientific) were incubated with various combination of U1 RNA, poly(I:C), cathelicidin peptides, and fucoidan for 1 hour at 4 °C allowing binding, but not internalization. […] Fluorescent PLA signals were evaluated using fluorescence microscopy (described above). Signals are counted by Duolink ImageTool software version 1.0.1.2 (Sigma-aldrich).

[1] = system: Group A streptococcus (GAS); assay type: cell-based
Protocol: Figure 1 Inflammatory activity of cathelicidin can be dissociated from antimicrobial function (a) Transcriptomic analysis by RNASeq of primary cultures of normal human epidermal keratinocytes (NHEKs) treated with LL37 (2.5 μM) with or without U1 RNA (2.5 μg/mL) for 24 hours. Shown are gene sets induced > 2 fold over vehicle, and after treatment with LL37, U1 RNA, or the combination of LL37 + U1 RNA. (b) Gene Ontology analysis of gene sets from (a). The number of genes related to each biological process is indicated in parentheses. (c) Amino acid sequence of synthetic cathelicidin peptides used in this study. (d) Antimicrobial assay of cathelicidin peptides against group A streptococcus (GAS). GAS were incubated with various concentrations of each peptide (0–25 μM) for 6 hours, then surviving colonies counted after plating on Todd Hewitt Broth gel. (e) IFN-β1 mRNA abundance and (f) IL-6 mRNA abundance in NHEKs after treatment with cathelicidin peptides (2.5 μM) for 10 minutes, then stimulated with U1 RNA (2.5 μg/mL) for a further 6 hours. (n = 3). (g) IFN-β1 mRNA abundance and (h) IL-6 mRNA abundance in […] (PMA)-treated THP1 cells after treatment with cathelicidin peptides (3 μM) for 10 minutes, then stimulated with U1 RNA (12.5 μg/mL) overnight. (n = 3). Data presented are from one representative experiment of at least two independent experiments. […]

Substance | close association between U1 RNA and SR-B1 (PLA, <40 nm) (SR-B1) | minimal bacteriocidal concentration (MBC) ([1]; 6 h) | antimicrobial activity against group A Streptococcus (GAS) ([1]; GAS incubated with peptide 0–25 μM for 6 hours, surviving colonies counted, Fig. 1d)
LL37 | enabled close association |  | 
LLGDFFRKSKEKIGKEFKRIVQRIKDFLRNLVPR [LL34] | enabled close association | ca. 5 uM | increased antimicrobial activity compared to LL37
